Test results from ChEMBL document CHEMBL2074142, “Interaction of anionic cephalosporins with the intestinal and renal peptide transporters PEPT 1 and PEPT 2” (Biochim Biophys Acta, 1997).

Tests used:
Type in all cases: functional, cell-based
[1] = target: T1, Solute carrier family 15 member 1 (Homo sapiens) (UniProt P46059); test: TP_TRANSPORTER: inhibition of Gly-Sar uptake (Gly-Sar: 20 uM, Cefdinir: 10000 uM) in PEPT1-expressing HeLa cells
T1 sequence (whole entry): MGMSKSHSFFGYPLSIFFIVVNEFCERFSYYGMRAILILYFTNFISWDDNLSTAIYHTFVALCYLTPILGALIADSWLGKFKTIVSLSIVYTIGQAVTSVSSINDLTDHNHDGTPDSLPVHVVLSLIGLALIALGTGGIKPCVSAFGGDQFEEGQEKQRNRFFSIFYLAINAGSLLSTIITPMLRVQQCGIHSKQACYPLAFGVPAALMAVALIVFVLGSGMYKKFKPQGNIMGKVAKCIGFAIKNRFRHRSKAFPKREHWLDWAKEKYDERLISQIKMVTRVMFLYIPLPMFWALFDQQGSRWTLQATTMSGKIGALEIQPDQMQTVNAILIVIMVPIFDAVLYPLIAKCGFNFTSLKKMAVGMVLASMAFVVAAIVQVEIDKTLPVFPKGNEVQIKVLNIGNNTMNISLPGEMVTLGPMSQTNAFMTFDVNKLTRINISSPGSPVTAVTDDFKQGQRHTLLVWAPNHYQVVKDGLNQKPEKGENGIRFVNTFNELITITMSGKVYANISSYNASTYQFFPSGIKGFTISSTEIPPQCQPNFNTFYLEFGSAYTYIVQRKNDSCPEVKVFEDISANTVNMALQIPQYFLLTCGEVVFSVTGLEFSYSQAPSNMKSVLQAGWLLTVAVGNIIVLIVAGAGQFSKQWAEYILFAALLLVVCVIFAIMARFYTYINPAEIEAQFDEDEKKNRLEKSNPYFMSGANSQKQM

[2] = target: T2, Solute carrier family 15 member 2 (Rattus norvegicus, UniProt Q63424); test: TP_TRANSPORTER: inhibition of Gly-Sar uptake (Gly-Sar: 5 uM) in SKPT cells
T2 sequence (Q63424 whole entry): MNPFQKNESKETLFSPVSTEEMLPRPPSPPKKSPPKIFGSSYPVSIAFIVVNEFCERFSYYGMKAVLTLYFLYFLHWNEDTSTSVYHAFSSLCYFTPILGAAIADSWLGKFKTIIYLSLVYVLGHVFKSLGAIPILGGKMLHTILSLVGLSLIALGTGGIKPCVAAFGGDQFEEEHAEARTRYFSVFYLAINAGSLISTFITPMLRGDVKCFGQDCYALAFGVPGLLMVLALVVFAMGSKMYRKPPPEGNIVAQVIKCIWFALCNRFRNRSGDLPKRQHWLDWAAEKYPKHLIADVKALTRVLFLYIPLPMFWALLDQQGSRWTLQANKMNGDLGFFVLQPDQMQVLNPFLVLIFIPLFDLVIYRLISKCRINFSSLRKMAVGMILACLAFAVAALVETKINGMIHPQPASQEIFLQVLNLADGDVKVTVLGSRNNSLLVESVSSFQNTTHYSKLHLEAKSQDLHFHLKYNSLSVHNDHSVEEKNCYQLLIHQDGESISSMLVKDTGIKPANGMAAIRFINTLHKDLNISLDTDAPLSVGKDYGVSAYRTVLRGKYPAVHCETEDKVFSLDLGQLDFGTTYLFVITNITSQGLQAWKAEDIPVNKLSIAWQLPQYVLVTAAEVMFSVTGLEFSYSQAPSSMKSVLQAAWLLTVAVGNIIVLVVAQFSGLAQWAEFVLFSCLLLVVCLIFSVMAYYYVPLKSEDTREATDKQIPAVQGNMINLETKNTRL

[3] = target: T3, Solute carrier family 15 member 2 (Homo sapiens) (UniProt Q16348); test: TP_TRANSPORTER: inhibition of Gly-Sar uptake (Gly-Sar: 50 uM, Cefdinir: 10000 uM) in PEPT2-expressing HeLa cells
T3 sequence (whole entry): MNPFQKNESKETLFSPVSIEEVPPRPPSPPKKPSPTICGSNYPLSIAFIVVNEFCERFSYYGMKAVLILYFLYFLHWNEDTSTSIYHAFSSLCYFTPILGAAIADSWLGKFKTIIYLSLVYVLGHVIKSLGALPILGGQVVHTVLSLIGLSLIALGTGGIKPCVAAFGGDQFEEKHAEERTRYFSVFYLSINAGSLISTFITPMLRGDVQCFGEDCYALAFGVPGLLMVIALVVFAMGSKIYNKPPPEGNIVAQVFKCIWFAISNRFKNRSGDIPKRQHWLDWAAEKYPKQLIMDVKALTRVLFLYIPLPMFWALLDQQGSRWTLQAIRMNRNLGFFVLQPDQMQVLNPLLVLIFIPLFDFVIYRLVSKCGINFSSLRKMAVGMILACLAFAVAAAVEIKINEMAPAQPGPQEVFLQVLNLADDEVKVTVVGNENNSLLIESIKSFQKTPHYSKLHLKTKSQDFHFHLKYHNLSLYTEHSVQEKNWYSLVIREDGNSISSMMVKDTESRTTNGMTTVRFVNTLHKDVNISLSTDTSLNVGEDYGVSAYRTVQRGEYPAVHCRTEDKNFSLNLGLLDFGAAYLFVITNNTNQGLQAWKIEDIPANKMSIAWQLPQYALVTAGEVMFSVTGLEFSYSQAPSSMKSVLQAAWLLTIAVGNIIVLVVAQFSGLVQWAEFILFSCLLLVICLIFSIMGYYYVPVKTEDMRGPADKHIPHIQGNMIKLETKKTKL

[4] = target: T1, Solute carrier family 15 member 1 (Homo sapiens); test: TP_TRANSPORTER: inhibition of Gly-Sar uptake (Gly-Sar: 20 uM, Cefixime: 10000 uM) in PEPT1-expressing HeLa cells
[5] = target: T4, Solute carrier family 15 member 1 (Homo sapiens, UniProt P46059); test: TP_TRANSPORTER: inhibition of Gly-Sar uptake (Gly-Sar: 5 uM) in Caco-2 cells
T4 sequence (P46059 whole entry): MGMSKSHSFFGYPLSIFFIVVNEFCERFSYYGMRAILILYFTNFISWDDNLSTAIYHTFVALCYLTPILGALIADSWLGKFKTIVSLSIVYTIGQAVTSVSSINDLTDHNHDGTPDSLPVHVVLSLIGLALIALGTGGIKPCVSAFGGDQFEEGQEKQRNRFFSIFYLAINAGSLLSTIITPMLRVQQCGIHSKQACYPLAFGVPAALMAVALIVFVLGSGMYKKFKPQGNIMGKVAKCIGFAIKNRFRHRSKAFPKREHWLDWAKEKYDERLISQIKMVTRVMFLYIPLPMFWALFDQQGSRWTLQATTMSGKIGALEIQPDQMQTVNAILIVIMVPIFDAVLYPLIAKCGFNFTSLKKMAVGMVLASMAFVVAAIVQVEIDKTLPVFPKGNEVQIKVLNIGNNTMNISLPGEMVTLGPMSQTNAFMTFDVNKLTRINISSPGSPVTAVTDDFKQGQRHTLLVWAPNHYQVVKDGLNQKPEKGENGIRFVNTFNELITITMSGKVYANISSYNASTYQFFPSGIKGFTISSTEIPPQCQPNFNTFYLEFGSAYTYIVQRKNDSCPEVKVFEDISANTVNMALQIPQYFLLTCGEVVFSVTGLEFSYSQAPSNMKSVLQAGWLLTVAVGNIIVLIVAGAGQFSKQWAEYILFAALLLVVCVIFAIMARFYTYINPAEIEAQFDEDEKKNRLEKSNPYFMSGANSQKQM

[6] = target: T3, Solute carrier family 15 member 2 (Homo sapiens); test: TP_TRANSPORTER: inhibition of Gly-Sar uptake (Gly-Sar: 50 uM, Cefixime: 10000 uM) in PEPT2-expressing HeLa cells
[7] = target: T4, Solute carrier family 15 member 1; test: TP_TRANSPORTER: inhibition of Gly-Sar uptake in PEPT1-expressing HeLa cells
[8] = target: T2, Solute carrier family 15 member 2; test: TP_TRANSPORTER: inhibition of Gly-Sar uptake in SKPT cells
[9] = target: T5, Solute carrier family 15 member 2 (Homo sapiens, UniProt Q16348); test: TP_TRANSPORTER: inhibition of Gly-Sar uptake in PEPT2-expressing HeLa cells
T5 sequence (Q16348 whole entry): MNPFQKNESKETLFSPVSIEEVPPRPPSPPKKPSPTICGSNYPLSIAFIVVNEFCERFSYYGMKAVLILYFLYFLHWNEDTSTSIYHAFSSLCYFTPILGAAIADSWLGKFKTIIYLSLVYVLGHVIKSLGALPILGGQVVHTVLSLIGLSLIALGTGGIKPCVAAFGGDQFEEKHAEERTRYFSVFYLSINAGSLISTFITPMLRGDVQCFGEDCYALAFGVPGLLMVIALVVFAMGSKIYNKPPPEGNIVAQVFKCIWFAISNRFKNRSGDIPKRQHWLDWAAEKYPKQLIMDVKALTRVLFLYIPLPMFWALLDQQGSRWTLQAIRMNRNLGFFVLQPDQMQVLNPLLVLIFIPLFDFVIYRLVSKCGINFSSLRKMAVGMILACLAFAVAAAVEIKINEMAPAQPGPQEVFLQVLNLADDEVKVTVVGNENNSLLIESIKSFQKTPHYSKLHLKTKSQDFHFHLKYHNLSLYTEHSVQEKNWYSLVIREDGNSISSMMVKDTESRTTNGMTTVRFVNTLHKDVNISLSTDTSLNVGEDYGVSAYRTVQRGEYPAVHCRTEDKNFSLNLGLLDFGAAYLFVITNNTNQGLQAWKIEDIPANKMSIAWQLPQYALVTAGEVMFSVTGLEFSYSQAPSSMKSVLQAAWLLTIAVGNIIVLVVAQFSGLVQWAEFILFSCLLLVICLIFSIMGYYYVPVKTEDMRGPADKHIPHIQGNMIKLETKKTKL

[10] = target: T4, Solute carrier family 15 member 1; test: TP_TRANSPORTER: inhibition of Gly-Sar uptake in Caco-2 cells
[11] = substrate: CN(CC(=O)O)C(=O)CN; test: TP_TRANSPORTER: uptake in SKPT cells

## C=CC1=C(C(=O)O)N2C(=O)[C@@H](NC(=O)/C(=N\O)c3csc(N)n3)[C@H]2SC1 [CEFDINIR]
[1]
  inhibition: 31%
[2]
  IC50: 10000 µM
[3]
  Activity: 0.48

## C=CC1=C(C(=O)O)N2C(=O)[C@@H](NC(=O)/C(=N\OCC(=O)O)c3csc(N)n3)[C@H]2SC1 [CEFIXIME]
[4]
  inhibition: 44%
[2]
  IC50: 3200 µM
[5]
  IC50: 10000 µM
[6]
  Activity: 0.54

## Nc1nc(/C(=C/CC(=O)O)C(=O)N[C@@H]2C(=O)N3C(C(=O)O)=CCS[C@H]23)cs1 [CEFTIBUTEN]
[7]
  Ki: 710 µM
[8]
  Ki: 380 µM
[9]
  Ki: 90 µM
[10]
  Ki: 870 µM

B1: Solute carrier family 15 member 2 (Rattus norvegicus), Q63424 (protein)
chain: MNPFQKNESKETLFSPVSTEEMLPRPPSPPKKSPPKIFGSSYPVSIAFIVVNEFCERFSYYGMKAVLTLYFLYFLHWNEDTSTSVYHAFSSLCYFTPILGAAIADSWLGKFKTIIYLSLVYVLGHVFKSLGAIPILGGKMLHTILSLVGLSLIALGTGGIKPCVAAFGGDQFEEEHAEARTRYFSVFYLAINAGSLISTFITPMLRGDVKCFGQDCYALAFGVPGLLMVLALVVFAMGSKMYRKPPPEGNIVAQVIKCIWFALCNRFRNRSGDLPKRQHWLDWAAEKYPKHLIADVKALTRVLFLYIPLPMFWALLDQQGSRWTLQANKMNGDLGFFVLQPDQMQVLNPFLVLIFIPLFDLVIYRLISKCRINFSSLRKMAVGMILACLAFAVAALVETKINGMIHPQPASQEIFLQVLNLADGDVKVTVLGSRNNSLLVESVSSFQNTTHYSKLHLEAKSQDLHFHLKYNSLSVHNDHSVEEKNCYQLLIHQDGESISSMLVKDTGIKPANGMAAIRFINTLHKDLNISLDTDAPLSVGKDYGVSAYRTVLRGKYPAVHCETEDKVFSLDLGQLDFGTTYLFVITNITSQGLQAWKAEDIPVNKLSIAWQLPQYVLVTAAEVMFSVTGLEFSYSQAPSSMKSVLQAAWLLTVAVGNIIVLVVAQFSGLAQWAEFVLFSCLLLVVCLIFSVMAYYYVPLKSEDTREATDKQIPAVQGNMINLETKNTRL
[11]
  Km: 74.5 µM
